# Measured values: paper PMC12914960, “Repurposing a detrimental antibody epitope as targeted therapeutics for sepsis and rheumatoid arthritis” (Military Medical Research, 2026)
# Where a SMILES comes first, the peptide text is derived from it.
# Key:
# [1] = tested on: CLP-induced sepsis in BALB/c mice; assay: Septic survival after cecal ligation and puncture (CLP); type: in vivo, mouse; details: i.p.
# Procedure: Experimental sepsis was induced in BALB/c mice via CLP as previously described. […] The animals were randomly assigned to the control vehicle (n = 10 or n = 20) or experimental groups (n = 10 or n = 20). P2 (5.0 mg/kg), P2-1 (0.1 mg/kg or 1.0 mg/kg), or tetranectin N-terminal deletion mutant (ΔTN) (1.0 mg/kg) were administered intraperitoneally (i.p.) at the indicated time points, and survival rates were monitored. To elucidate P2-1’s protective mechanisms, a separate group of BALB/c mice (n = 4) underwent CLP and received P2-1 (1.0 mg/kg) at 2 h and 20 h post-CLP. At 24 h post-CLP, the animals were euthanized, blood was collected, and serum cytokines and chemokines were measured via murine cytokine antibody arrays as previously described. More details are presented in Additional file 1: Methods.
# For these preclinical studies, animals were random ly assigned to experimental groups and treated with P2, P2-1, or a pCTS-L-neutralizing mAb2 according to the indicated dosing regimens. Outcomes, including septic survival rates, arthritis severity, pain sensitivity, and joint tissue histology scores, were collected under blinded experiment al conditions. The study d esign and sample si zes fo r each exp eriment are d etailed in the figure legends. No data, including outlier values, were excluded. For skewed data, outliers were defined via the interquartile range (IQR) method as any value below Q 1 –(1.5 × IQR) or above Q 3 + (1.5 × IQR). For normally distributed data, outliers were defined via the Z-score method as any value with an absolute Z-score greater than 2 or 3. The primary data are reported in Additional file 4. All the reagent sources are listed in Additional file 1: Table S1 .
# Cecal ligation and puncture (CLP) sepsis model […]
# screening. c Expression and purification of recombinant full-length human TN (residues 1 – 181) and its N-terminal deletion mutant ( ΔTN, residues 45 – 181). […] Recombinant Δ TN was given intraperitoneally at 24 h and 48 h post-C L P, and animal survival rates were monitored. *P < 0.0 5. […]
# human PBMCs = assay: RNA-seq of HMGB1-stimulated PBMCs; type: cell-based
# Procedure: Total RNA was isolated from human PBMCs (n = 6 biological replicates) stimulated with HMGB1 in the absence or presence of P2-1 (5.0 or 10.0 µg/ml) via the RNeasy Mini Kit (Qiagen, Germantown, MD, USA) according to the manufacturer’s instructions. cDNA libraries were prepared using the TruSeq RNA Library Prep Kit v2 (Illumina, San Diego, CA, USA) and sequenced on an Illumina NovaSeq 6000 platform to generate 100 bp paired-end reads. Gene counts were quantified via StringTie and DESeq2 for differential gene expression analysis. Volcano plots and heatmaps were generated via ggplot2 and pheatmap packages in R, respectively. Genes with an adjusted P-value < 0.05 and a |log2 fold change|> 1 were considered differentially expressed. […]
# custom-synthesized (Gen Script, Piscataway, NJ, USA). P2 -1 was engineered to: i) increase solubility by removing a w ater-insoluble phenylalanine (F) at the C-terminal residue 70 and introducing a water-soluble threonine (T) at N-t erminal residue 54; and ii) reduce oxidative susceptibility by substituting methionine (M) with norleucine (Nle) and cysteine (C) with serine (S), respectively. The pCTS -L-neutralizing mAbs (mAb2) and TN-neutrali zing mAbs (mAb8 and m Ab9) were generated in BALB/c and C57BL/6 m ice as previously described .
# RNA sequencing (RNA- Seq) and bioinformatics analysis
# Total RNA was isolated from human PBMCs (n= 6 biological replicates) stimulated with HMGB1 in the absence o r pres ence o f P2-1 (5.0 or 10.0 µg/ml) via the RNeasy Mini Kit (Qiagen, Germantown, MD, USA) according to the manufacturer ’s instructions. RNA quantity and quality were assessed via a NanoDrop spectrophotometer, which requires A260/280 and A260/230 ratios to both be > 1.8. Samples meeting these criteria were then sent to two sequencing facilities, where RNA integrity was further confirmed via an Agilent Bioanalyzer. Only samples with an RNA integrity number of 8 or above were accepted for RNA sequencing. cDNA libraries were prepared using the TruSeq RNA Library Prep Kit v2 (Illumina, San Diego, CA, USA) and sequenced on an Illumina NovaSeq 6000 platform to generat e 100 bp paired-end reads. Our data filtering criteria adhered to industry best practices to ensure data quality.
# First, raw sequencing reads underwent quality assessment with FastQC, followed by adapter and low-quality nucleotide trimming using Trimmomatic v.0.36. Subsequently, the high- quality reads wer e aligned to the Homo sapiens GRCh38 reference genome using the STAR aligner v.2.5.2b. Following alignment, PCR duplicates were identified and removed with Picard tools to mitigate amplification bias. Before differential expression an alysis, the gene count matrix was filtered to retain only genes with a count-per-million (CPM) > 1 in at least three samples (n = 3, representing our smallest experimental group). This rigorous procedure ensured that analysis was perfo rmed on a robust set of reliably expressed gen es. Finally, gene counts were quantified via StringTie and DESeq2 for differential gene expression analysis. Volcano
structure (smiles),measurement,setting,value
CCCC[C@H](NC(=O)[C@H](Cc1c[nH]cn1)NC(=O)[C@@H](NC(=O)[C@H](CCCCN)NC(=O)[C@@H](N)[C@@H](C)O)C(C)C)C(=O)N[C@@H](CCCCN)C(=O)N[C@@H](CO)C(=O)N[C@@H](Cc1ccccc1)C(=O)N[C@@H](CC(C)C)C(=O)N[C@@H](C)C(=O)N[C@@H](Cc1ccccc1)C(=O)N[C@@H](CCC(N)=O)C(=O)N[C@H](C(=O)N[C@@H](CCCCN)C(=O)N[C@H](C(=O)O)[C@@H](C)O)[C@@H](C)O [P2-1] (HELM PEPTIDE1{T.K.V.H.[Nle].K.S.F.L.A.F.Q.T.K.T}$$$$V2.0; N-terminus and C-terminus assumed),"septic survival, in words","[1]; P2-1 0.1 mg/kg at 2, 20, 28, 44, and 52 h post-CLP",conferred significant protection against sepsis
same,"septic survival, in words",[1]; P2-1 1.0 mg/kg at 24 h and 48 h post-CLP,potent protection against lethal sepsis even with delayed therapeutic administration
same,Ctsl mRNA upregulation,"human PBMCs; HMGB1 + P2-1 5.0 µg/ml, human PBMCs",2.4 ± 0.1 -fold
same,"HMGB1-induced transcriptional changes, in words","human PBMCs; HMGB1 with P2-1, human PBMCs",did not broadly reverse HMGB1-induced transcriptional changes in most genes
